{"source": "patent US10251845B2", "about": "“Fatty acid cysteamine conjugates and their use as activators of autophagy” (Catabasis Pharmaceuticals, Inc., priority 2014, dated 2019)", "type_in_all_cases": "cell-based", "key": {"LC3-II/LC3-I": {"tested_on": "LC3-II/LC3-I", "assay": "LC3 immunoblotting in HT-29 cells (autophagy)", "conditions": "24 hours", "procedure": "The test compound was first solubilized in 100% DMSO as a 50 mM solution, and then diluted 1 to 100 in FBS as a 10× stock solution of 500 μM.\nHuh-7 cells were seeded in 10% FBS DMEM overnight. The cells media were replaced with drug diluted 1 to 10 in DMEM (final concentration 50 μm in 10% FBS DMEM). Four hours after the drug addition, cells were lysed in RIPA buffer. Cell lysates were analyzed by immunoblotting with anti-LC3A/B antibodies (Cell signaling 12741). Data were presented as LC3-II/LC3-I ratio compared to vehicle treated samples.\nAs noted in Levine and Kroemer (2008) CELL, 132, p. […] The same incubation experiment was carried out in HT-29 cells with compound II-3. […] FIG. 2E summarizes the results when HT-29 cells were incubated with 50 μM of compounds IV-11 and IV-12.\nThis same synergy experiment was repeated with compound II-3 using HT-29 cells. In this experiment, HT-29 cells were incubated for 24 hours with each of the following treatment groups: 1) vehicle control group; 2) cystamine (25 μM); 3) DHA (25 μM); 4) a combination of cystamine (25 μM) and DHA; 5) cystamine (250 μM); 6) DHA (250 μM); 7) a combination of cystamine (250 μM) and DHA (250 μM); 8) compound II-3 (25 μM). The result shown represented the average of three separate measurements. […] This degree of activation of autophagy was not achieved with any of the following treatment groups: 1) vehicle control group; 2) cystamine (25 μM); 3) DHA (25 μM); 4) a combination of cystamine (25 μM) and DHA; 5) cystamine (250 μM); 6) DHA (250 μM); 7) a combination of cystamine (250 μM) and DHA (250 μM)."}, "[1]": {"tested_on": "Pseudomona aeruginosa strain Xen05", "assay": "In vitro bacterial clearance assay using human bronchial epithelial cells (16HBE)", "conditions": "16HBE cells, 25 μM", "procedure": "In this assay, normal 16HBE cells were cultured and seeded at 2×10^5 cells per well using a 48-well plate. The resulting plates were incubated at 37° C. with 5% CO2 until 90% confluency. Cells were then treated with compound II-3 for 24 hours and then infected with Pseudomona aeruginosa strain Xen05 at a multiplicity of infection (MOI) of 1:50 (i.e. ratio of cells:bacteria) for 2 hours. Cells were then incubated with 500 μL of a mixture consisting non-permeable antibiotic (50 U/mL each of penicillin and streptomycin, mixed with 200 μg/mL gentamicin) for 3 hours to remove the extracellular bacteria. Afterwards, cells were lysed and a bacteria count was carried out to determine the remaining intracellular bacteria load."}, "ΔF508 CFTR": {"target": "ΔF508 CFTR (Homo sapiens, UniProt P13569, DEL508-508)", "sequence (P13569 with tags, fused parts or gaps DEL508-508)": "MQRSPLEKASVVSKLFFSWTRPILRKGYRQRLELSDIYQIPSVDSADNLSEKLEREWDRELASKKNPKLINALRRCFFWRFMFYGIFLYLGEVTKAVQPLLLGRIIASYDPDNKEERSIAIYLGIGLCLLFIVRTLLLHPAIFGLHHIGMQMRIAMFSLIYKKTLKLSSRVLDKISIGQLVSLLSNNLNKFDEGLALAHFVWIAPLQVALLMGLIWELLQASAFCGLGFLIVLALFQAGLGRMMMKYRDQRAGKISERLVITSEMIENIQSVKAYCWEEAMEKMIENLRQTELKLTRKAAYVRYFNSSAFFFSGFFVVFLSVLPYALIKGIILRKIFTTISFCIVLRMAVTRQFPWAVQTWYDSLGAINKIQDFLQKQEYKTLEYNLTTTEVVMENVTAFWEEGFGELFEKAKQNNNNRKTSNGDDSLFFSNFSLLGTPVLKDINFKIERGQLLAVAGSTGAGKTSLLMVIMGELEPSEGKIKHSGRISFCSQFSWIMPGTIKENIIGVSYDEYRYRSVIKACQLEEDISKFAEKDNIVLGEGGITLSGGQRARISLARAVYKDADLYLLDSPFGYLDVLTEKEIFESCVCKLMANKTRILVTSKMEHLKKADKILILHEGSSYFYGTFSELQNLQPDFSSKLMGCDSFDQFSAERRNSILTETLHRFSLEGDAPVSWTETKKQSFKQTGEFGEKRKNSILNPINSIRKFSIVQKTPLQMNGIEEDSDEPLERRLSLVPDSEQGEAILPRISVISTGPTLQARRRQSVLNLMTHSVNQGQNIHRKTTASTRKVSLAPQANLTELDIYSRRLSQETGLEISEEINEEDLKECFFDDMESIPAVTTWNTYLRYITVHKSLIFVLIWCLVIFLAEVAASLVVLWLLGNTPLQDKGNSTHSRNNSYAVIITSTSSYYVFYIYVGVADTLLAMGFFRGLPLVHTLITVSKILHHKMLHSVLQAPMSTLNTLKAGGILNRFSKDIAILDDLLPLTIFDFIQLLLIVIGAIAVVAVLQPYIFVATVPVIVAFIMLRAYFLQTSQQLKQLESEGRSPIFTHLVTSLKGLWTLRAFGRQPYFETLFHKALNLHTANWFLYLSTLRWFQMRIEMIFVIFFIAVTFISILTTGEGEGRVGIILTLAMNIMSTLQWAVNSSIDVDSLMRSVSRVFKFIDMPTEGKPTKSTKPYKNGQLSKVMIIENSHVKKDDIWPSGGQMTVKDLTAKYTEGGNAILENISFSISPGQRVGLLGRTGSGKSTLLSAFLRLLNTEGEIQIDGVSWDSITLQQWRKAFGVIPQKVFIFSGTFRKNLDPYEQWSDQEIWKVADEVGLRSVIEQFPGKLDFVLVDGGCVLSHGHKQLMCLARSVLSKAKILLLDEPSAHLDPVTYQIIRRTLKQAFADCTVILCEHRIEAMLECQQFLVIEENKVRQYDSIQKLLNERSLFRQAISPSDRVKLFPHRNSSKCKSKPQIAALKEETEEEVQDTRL", "assay": "Ussing chamber short circuit current in Fisher Rat Thyroid epithelial cells overexpressing ΔF508-CFTR", "parameters": "expressed in transfected cells; host or cells: Fisher Rat Thyroid (FRT) epithelial cells, stably transfected", "conditions": "FRT cells", "procedure": "The most prevalent disease causing mutation of the CF transmembrane conductance regulator (CFTR) chloride channel is the deletion of phenylalanine at position 508 in the primary sequence of CFTR (ΔF508-CFTR). This mutation causes a trafficking defect resulting in a severe reduction of ΔF508-CFTR protein at the cell surface. The trafficking defect can be corrected by incubation at low temperature (27° C. overnight) or pharmacologically by small molecules and CFTR correctors. Chloride transport function of Fisher Rat Thyroid (FRT) epithelial cells overexpressing ΔF508-CFTR in monolayers grown on Snapwell™ filter inserts will be monitored as the CFTR agonist evoked short circuit (ISC) current output of an Ussing epithelial voltage clamp apparatus. An objective of this study is to measure the ability of test compounds to restore function to defective ΔF508-CFTR in FRT epithelial cell monolayers.\nMeasurement of corrector efficacy is divided into two phases. The initial phase is incubation of epithelia with the test compounds for a period of time (that can range from 2 hours to one or two days) in a 37° C. incubator and the second phase is measurement of epithelial ΔF508-CFTR chloride channel current with an epithelial voltage clamp (Ussing assay). The short circuit current (ISC) is measured under short circuit conditions (0 mV transepithelial potential). The ISC magnitude is an index of corrector efficacy and is compared to vehicle and positive control.\nCryopreserved FRT cells stably transfected with ΔF508-CFTR cDNA (Pedemonte et al. (2005) J. CLIN. INVEST., 115, p. 2564-2571) were expanded and plated on Snapwell™ filters for measurement of short circuit current in an Ussing apparatus (Physiologic Instruments, Inc., Sand Diego, Calif.). Cells were grown in Coon's modification of Ham's F-12 media supplemented with zeocin and G-418.\nTo conduct the assay, a compound of the invention was solubilized as follows: • 1) Prepare 25 mM stock solution in 100% DMSO. • 2) Dilute 12 μL of 25 mM stock solution in 1.20 mL of FBS to make 250 μM intermediate dilution 10× stock (1% DMSO, 99% FBS). Gently vortex all solutions until the solution becomes clear. • 3) Prepare final dilution of 10 μM in 10 mL of Coon's media per well (4 wells×2 mL per well bottom+0.2 mL per insert top=8.8 mL and 1.2 mL reserve for handling losses) by addition of 400 μL of 10× stock and 600 μL of 10× carrier (1% DMSO, 99% FBS) to 9000 μL of Coon's media.\nFor this example, the test compound was solubilized and added to the appropriate inserts of Ussing chambers (n=4 for each test compound, final test concentration of 10 μM). A DMSO vehicle control and a positive control (VX-809 at 3 μM) were also used. For this particular example, all the test articles, including the positive control, were incubated with the cells for a period of 4 hours. The FRT cell monolayers grown on Snapwell™ filter inserts were transferred to Physiologic Instruments Ussing recording chambers (Physiologic Instruments, Inc., San Diego, Calif.) and superfused with HB-PS on the basolateral side and 78CF-PS on the apical side. One or more 6-channel or 8-channel Physiologic Instruments VCC MC6 or VCC MC8 epithelial voltage clamps were then used in combination to record the short circuit current (ISC) during the entire run. To initiate the ISC measurement, amphotericin (100 μM) was added to the basolateral side of the Snapwell™ filter insert to permeabilize the epithelial cells for 15 min. Forskolin (10 μM), IBMX (100 μM), Genistein (20 μM) and the CFTRinh-172 (20 μM) were added sequentially after the following incubation periods (15 min, 20 min, 10 min, 15 min and 15 min respectively). Data acquisition and analyses were performed using iWorx data acquisition hardware and Labscribe 2 software (iWorx, Dover, N.H.). […]"}, "[2]": {"conditions": "II-3 (10 μM)+VX-809 (3 μM)+VX-770 (100 nM), 24 hours, positive control VX-809+VX-770 = 100%"}}}
{"smiles": "CC/C=C\\C/C=C\\C/C=C\\C/C=C\\C/C=C\\C/C=C\\CCC(=O)NCCSSC(C)(C)CNC(=O)c1cccnc1", "note": "[II-3, N-(2-((2-((4Z,7Z,10Z,13Z,16Z,19Z)-docosa-4,7,10,13,16,19-hexaenamido)ethyl)disulfanyl)-2-methylpropyl)nicotinamide]", "values": [{"measurement": "activation of autophagy (ratio of LC3-II to LC3-I)", "setting": "LC3-II/LC3-I; HT-29, 25 μM", "value": "synergistic and higher degree of activation of autophagy"}, {"measurement": "ratio of LC3-II to LC3-I compared to vehicle control", "setting": "LC3-II/LC3-I; HT-29 cells, 50 μM", "value": "increase"}, {"measurement": "intracellular bacterial killing effect relative to positive control Cytochalasin-D", "setting": "[1]", "value": "comparable"}, {"measurement": "intracellular clearance of Pseudomona aeruginosa", "setting": "[1]; 24 hours pre-treatment", "value": "effective intracellular clearance"}, {"measurement": "short circuit current trace", "setting": "ΔF508 CFTR; 10 μM with VX-770 or VX-809+VX-770, 24 hours", "value": "functionally active"}, {"measurement": "steady state response upon the addition of Forskolin", "setting": "ΔF508 CFTR; II-3 (10 μM)+VX-770 compared with vehicle+VX-770, 24 hours", "value": "modest response"}, {"measurement": "steady state response upon the addition of Forskolin, % of control", "setting": "ΔF508 CFTR; [2]", "value": 143.6, "unit": "%"}, {"measurement": "steady state response upon the addition of the CFTRinh-172, % of control", "setting": "ΔF508 CFTR; [2]", "value": 144.0, "unit": "%"}]}
